Like-named read-outs stand apart in the source and are kept apart here. Starred links: 1 amine or outer side, 2 acyl side, 3 side chain; linkers in the order of their positions; H or OH if unused. Positions of bridges follow the written chain, without caps; N, C: chain ends. Non-standard residues stand in square brackets, D forms with d. Residues, ends and D or L forms follow the SMILES beside them. Chains are numbered I, II in the order given. Hexamethylenediamine = C(CCCN[*:2])CCN[*:1]; Dip = N[C@H](C(=O)O)C(c1ccccc1)c1ccccc1; Chg = N[C@H](C(=O)O)C1CCCCC1; NMeA = CN[C@@H](C)C(=O)O
Experiments:
BIRC1 BIR[2] = target: T1, BIRC1 BIR[2] (Homo sapiens, UniProt Q13075); assay: NanoBRET cellular target engagement, single domain BIRC1 BIR[2]
T1 sequence (Q13075 139-251): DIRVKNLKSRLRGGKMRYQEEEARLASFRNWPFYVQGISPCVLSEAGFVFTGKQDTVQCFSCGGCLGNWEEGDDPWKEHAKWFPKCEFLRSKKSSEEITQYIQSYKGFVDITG
Method: (§1) In brief: Constructs contained the cDNA of full-length or single domains cloned in frame with an N-terminal NanoLuc-fusion as specified in Supplementary Table S2. Plasmids were transfected into HEK293T cells using FuGENE HD (Promega, E2312) and proteins were allowed to express for 20 h. […] The corresponding transfected cells were added and reseeded at a density of 2.5^5 cells/mL after trypsinization and resuspending in Opti-MEM without phenol red (Life Technologies). […] Competitive displacement data were then graphed using GraphPad Prism 9.3 software using a normalized 3-parameter curve fit with the following equation: Y = 100/(1 + 10^(X-LogIC50)).

BIRC2 BIR3 = BIRC2 BIR3 (Homo sapiens, UniProt Q13490); assay: NanoBRET cellular target engagement, single domain BIRC2 BIR3
BIRC2 BIR3, sequence (Q13490 251-372): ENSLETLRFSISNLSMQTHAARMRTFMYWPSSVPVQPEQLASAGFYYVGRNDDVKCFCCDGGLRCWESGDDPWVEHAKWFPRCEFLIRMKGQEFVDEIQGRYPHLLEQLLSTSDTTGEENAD
Method: as §1

BIRC2-BIR3 domain [1] = target: T2, BIRC2-BIR3 domain (Homo sapiens, UniProt Q13490); assay: Isothermal titration calorimetry (ITC); assay type: binding; design: BIRC2-BIR3 domain (260–352) was expressed; His6 (N, cleaved yes); GST (N, cleaved yes); made in house; host or cells: E. coli; conditions: 25°C; for Kd: duplicates, mean ± SD, read-out: K D Measured in ITC
T2 sequence (Q13490 260-352): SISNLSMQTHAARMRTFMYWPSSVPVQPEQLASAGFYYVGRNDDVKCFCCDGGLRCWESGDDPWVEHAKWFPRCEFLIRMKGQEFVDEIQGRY
Method: For this protocol, the chamber was pre-equilibrated with the test compound, and the BIRC2-BIR3 domain was titrated in while continuously measuring the rate of exothermic heat evolution. The heat of binding was integrated, corrected, and fitted to an independent single-binding site model based on the manufacturer’s instructions, from which thermodynamic parameters (ΔH and TΔS), equilibrium association and dissociation constants (K A and K D, respectively), and stoichiometry (n) were calculated.

BIRC2-BIR3 domain [2] = target: T2, BIRC2-BIR3 domain; assay: Fluorescence polarization (FP) competition assay with fluorescent SMAC probe; assay type: binding; design: BIRC2-BIR3 domain (260–352) was expressed; His6 (N, cleaved yes); GST (N, cleaved yes); made in house; host or cells: E. coli; conditions: read-out: FP Assay K I Values
Method: Resulting data was plotted using GraphPad Prism 9.3 software and analyzed using a nonlinear fit to calculate the probe IC50. […] Compounds were titrated from 20 μM to 20 nM using an ECHO 550 acoustic dispenser (Labcyte) incubated for 1 h at room temperature and subsequent read out.
The assay is based on the displacement of a fluorescent SMAC mimetic from the binding site.

BIRC7 = target: T3, BIRC7 (Homo sapiens, UniProt Q96CA5); assay: NanoBRET cellular target engagement, full-length BIRC7
T3 sequence (Q96CA5 1-298): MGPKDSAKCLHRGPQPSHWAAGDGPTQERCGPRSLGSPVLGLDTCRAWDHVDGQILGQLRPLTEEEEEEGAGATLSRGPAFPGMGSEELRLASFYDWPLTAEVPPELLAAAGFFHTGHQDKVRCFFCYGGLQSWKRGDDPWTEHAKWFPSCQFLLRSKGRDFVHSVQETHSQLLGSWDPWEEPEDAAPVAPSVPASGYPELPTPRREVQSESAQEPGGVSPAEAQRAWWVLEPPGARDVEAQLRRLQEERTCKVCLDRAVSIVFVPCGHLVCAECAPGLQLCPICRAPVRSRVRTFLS
Method: as §1

BIRC2 = BIRC2 (Homo sapiens, UniProt Q13490); assay: NanoBRET cellular target engagement, full-length BIRC2
BIRC2, sequence (Q13490 whole entry, the tested form may be a part): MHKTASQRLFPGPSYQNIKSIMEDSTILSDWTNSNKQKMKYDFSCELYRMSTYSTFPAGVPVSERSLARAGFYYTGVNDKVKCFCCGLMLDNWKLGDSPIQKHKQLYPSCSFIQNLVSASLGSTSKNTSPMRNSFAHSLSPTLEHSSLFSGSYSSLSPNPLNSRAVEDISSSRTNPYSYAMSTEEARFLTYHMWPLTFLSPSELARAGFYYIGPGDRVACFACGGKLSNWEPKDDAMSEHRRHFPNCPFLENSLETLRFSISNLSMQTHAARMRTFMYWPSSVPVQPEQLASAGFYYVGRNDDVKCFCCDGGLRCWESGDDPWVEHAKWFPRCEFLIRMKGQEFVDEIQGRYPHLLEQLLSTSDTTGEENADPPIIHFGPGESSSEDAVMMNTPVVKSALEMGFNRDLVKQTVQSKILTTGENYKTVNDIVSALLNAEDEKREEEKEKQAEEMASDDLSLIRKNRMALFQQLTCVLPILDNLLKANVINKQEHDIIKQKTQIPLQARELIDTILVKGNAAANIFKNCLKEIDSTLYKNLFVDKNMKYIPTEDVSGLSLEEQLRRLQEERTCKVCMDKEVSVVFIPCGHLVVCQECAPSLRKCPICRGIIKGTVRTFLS
Method: as §1

BIRC8 BIR = target: T4, BIRC8 BIR (Homo sapiens, UniProt Q96P09); assay: NanoBRET cellular target engagement, single domain BIRC8 BIR
T4 sequence (Q96P09 1-90): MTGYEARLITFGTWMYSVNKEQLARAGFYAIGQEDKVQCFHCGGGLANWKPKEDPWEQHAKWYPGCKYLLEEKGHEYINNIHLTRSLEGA
Method: as §1

BIRC2-BIR3 domain [3] = target: T2, BIRC2-BIR3 domain; assay: Differential scanning fluorimetry (DSF); conditions: for Mean, ΔTm [°C] (Supplementary Table S1): mean of n=3, difference to DMSO control; for ΔTm [°C] (Supplementary Table S1): technical replicate
Method: Purified proteins were buffered in DSF buffer (25 mM HEPES pH 7.5, 500 mM NaCl) and were assayed in a 384-well plate (Thermo, #BC3384) with a final protein concentration of 20 μM in 10 μL final assay volume. Inhibitors were added in excess to a final concentration of 40 μM, using an ECHO 550 acoustic dispenser (Labcyte). As a fluorescent probe, SYPRO-Orange (Molecular Probes) was used at 5x final concentration. […] Data was analyzed using Boltzmann-equation in the Protein Thermal Shift software (Applied Biosystems). Samples were measured in technical triplicates.
The assay was run in the presence of DMSO to exclude DMSO influences towards melting temperature differences when testing small molecules (Figures 2C,D).

BIRC2-BIR3 domain [4] = target: T2, BIRC2-BIR3 domain; design: BIRC2-BIR3 domain (260–352) was expressed; His6 (N, cleaved yes); GST (N, cleaved yes); made in house; host or cells: E. coli; conditions: read-out: Literature FP Assay K I Values, cited from earlier work
BIRC8 = target: T5, BIRC8 (Homo sapiens, UniProt Q96P09); assay: NanoBRET cellular target engagement, full-length BIRC8
T5 sequence (Q96P09 1-236): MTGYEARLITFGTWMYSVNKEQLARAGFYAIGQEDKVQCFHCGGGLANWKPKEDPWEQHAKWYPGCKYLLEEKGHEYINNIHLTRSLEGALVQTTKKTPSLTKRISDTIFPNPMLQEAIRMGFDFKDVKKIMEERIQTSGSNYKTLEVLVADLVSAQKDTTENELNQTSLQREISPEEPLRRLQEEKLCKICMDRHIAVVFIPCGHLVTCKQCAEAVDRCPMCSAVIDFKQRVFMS
Method: as §1

BIRC2 BIR2 = BIRC2 BIR2 (Homo sapiens, UniProt Q13490); assay: NanoBRET cellular target engagement, single domain BIRC2 BIR2
BIRC2 BIR2, sequence (Q13490 165-267): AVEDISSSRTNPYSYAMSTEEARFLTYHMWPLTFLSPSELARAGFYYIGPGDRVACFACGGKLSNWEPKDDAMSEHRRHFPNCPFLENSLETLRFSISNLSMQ
Method: as §1

BIRC7 BIR = target: T6, BIRC7 BIR (Homo sapiens, UniProt Q96CA5); assay: NanoBRET cellular target engagement, single domain BIRC7 BIR
T6 sequence (Q96CA5 70-176): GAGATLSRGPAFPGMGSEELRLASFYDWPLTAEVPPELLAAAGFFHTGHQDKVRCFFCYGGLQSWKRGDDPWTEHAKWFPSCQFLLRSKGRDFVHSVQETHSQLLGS
Method: as §1

BIRC3 BIR2 = BIRC3 BIR2 (Homo sapiens, UniProt Q13489); assay: NanoBRET cellular target engagement, single domain BIRC3 BIR2
BIRC3 BIR2, sequence (Q13489 147-253): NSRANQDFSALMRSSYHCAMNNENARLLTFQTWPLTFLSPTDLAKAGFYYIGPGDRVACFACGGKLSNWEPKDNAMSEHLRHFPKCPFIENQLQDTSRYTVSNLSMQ
Method: as §1

BIRC3 BIR3 = BIRC3 BIR3 (Homo sapiens, UniProt Q13489); assay: NanoBRET cellular target engagement, single domain BIRC3 BIR3
BIRC3 BIR3, sequence (Q13489 236-360): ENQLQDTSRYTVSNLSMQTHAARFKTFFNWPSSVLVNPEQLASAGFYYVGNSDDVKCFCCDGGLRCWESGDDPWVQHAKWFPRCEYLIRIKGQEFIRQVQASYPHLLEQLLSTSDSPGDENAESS
Method: as §1

BIRC3 = BIRC3 (Homo sapiens, UniProt Q13489); assay: NanoBRET cellular target engagement, full-length BIRC3
BIRC3, sequence (Q13489 whole entry): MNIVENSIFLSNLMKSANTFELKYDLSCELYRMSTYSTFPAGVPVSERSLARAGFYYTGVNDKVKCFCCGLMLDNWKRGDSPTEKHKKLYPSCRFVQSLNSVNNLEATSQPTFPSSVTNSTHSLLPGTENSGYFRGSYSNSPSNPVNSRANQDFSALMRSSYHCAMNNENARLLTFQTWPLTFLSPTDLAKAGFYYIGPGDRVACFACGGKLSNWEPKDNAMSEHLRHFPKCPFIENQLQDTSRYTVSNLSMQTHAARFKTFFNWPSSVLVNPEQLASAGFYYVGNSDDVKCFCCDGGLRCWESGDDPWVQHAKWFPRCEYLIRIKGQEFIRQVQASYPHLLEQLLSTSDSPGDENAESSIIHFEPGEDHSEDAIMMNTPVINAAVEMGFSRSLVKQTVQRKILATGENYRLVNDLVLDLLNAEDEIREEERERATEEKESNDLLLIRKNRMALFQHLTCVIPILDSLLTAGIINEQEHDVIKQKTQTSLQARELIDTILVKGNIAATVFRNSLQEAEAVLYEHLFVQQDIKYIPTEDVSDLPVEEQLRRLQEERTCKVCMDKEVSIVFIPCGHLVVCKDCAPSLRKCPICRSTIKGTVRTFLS
Method: as §1

BIRC4 = BIRC4 (Homo sapiens, UniProt P98170); assay: NanoBRET cellular target engagement, full-length BIRC4
BIRC4, sequence (P98170 whole entry, the tested form may be a part): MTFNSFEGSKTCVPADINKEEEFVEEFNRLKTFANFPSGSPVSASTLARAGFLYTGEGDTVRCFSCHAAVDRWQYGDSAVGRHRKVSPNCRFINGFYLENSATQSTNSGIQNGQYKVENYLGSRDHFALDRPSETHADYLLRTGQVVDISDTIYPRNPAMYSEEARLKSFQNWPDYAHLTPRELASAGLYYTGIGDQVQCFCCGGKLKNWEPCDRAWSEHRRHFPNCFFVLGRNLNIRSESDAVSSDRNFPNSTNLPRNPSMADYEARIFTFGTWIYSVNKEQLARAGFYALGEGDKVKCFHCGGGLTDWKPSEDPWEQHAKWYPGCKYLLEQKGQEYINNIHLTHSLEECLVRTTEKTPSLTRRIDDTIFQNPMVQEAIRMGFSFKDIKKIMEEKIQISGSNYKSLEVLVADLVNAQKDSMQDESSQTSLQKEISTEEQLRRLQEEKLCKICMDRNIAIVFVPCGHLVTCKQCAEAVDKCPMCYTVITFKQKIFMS
Method: as §1

[5] = target: T7, BIRC2-BIR3 domain (260-352) (human, UniProt Q13490 260-352); assay: fluorescence polarisation; BIRC2-BIR3 titrated from 40 uM to 600 pM into 30 nM FAM-labelled SMAC probe; 50 mM HEPES pH 7.5, 150 mM NaCl, 5% glycerol, 1 mM TCEP, 0.05% TWEEN20; 1 h at room temperature; conditions: both partners purified
T7 construct: BIR3 domain of human BIRC2 (cIAP1), residues 260-352; The expression tag was cleaved with TEV protease; also called BIR3 domain of BIRC2; not shown: His6, N-terminal, cleaved; GST, N-terminal, cleaved
T7 sequence (Q13490 260-352): as the sequence (Q13490 260-352) above

[6] = read-out: EC50 ± SEM NanoBRET BIRC1 BIR[2], single domain, HEK293T, n = 4
[7] = read-out: EC50 ± SEM NanoBRET BIRC2 BIR3, single domain, HEK293T, n = 4
[8] = BIRC2 BIR3 domain, Cheng-Prusoff from IC50, mean ± SD, n = 3
[9] = read-out: EC50 ± SEM NanoBRET BIRC7, full-length, HEK293T, n = 4
[10] = read-out: EC50 ± SEM NanoBRET BIRC2, full-length, HEK293T, n = 4
[11] = read-out: EC50 ± SEM NanoBRET BIRC8 BIR, single domain, HEK293T, n = 4
[12] = read-out: EC50 ± SEM NanoBRET BIRC8, full-length, HEK293T, n = 4
[13] = read-out: EC50 ± SEM NanoBRET BIRC2 BIR2, single domain, HEK293T, n = 4
[14] = read-out: EC50 ± SEM NanoBRET BIRC7 BIR, single domain, HEK293T, n = 4

## CN[C@@H](C)C(=O)N[C@H]1CCCC[C@H]2CC[C@@H](C(=O)N[C@@H](c3ccccc3)c3cn(CCCCc4ccc(CCCCn5cc([C@@H](NC(=O)[C@@H]6CC[C@@H]7CCCC[C@H](NC(=O)[C@H](C)NC)C(=O)N76)c6ccccc6)nn5)cc4)nn3)N2C1=O [SM-164]
BIRC1 BIR[2]; [6]
  EC50: 941 ± 258 nM
BIRC2 BIR3; [7]
  EC50: 0.8 ± 0.1 nM
BIRC2-BIR3 domain [1]
  Kd: 41.6 ± 3.4 nM
BIRC2-BIR3 domain [2]; [8]
  Ki: 1.8 ± 0.7 nM
BIRC7; [9]
  EC50: 16.5 ± 6 nM
BIRC2; [10]
  EC50: 5.8 ± 0.6 nM
BIRC8 BIR; [11]
  EC50: 87.3 ± 9.4 nM
BIRC2-BIR3 domain [3]; difference in melting temperature to DMSO control, 20 μM protein, 40 μM inhibitor, mean ± SD, n = 3
  DSF Assay ΔTm: 13.4 ± 0.2 °C
BIRC2-BIR3 domain [3]
  Mean, ΔTm [°C] (Supplementary Table S1): 13.4 °C
BIRC2-BIR3 domain [3]; first column
  ΔTm [°C] (Supplementary Table S1): 13.6 °C
BIRC2-BIR3 domain [3]; second column
  ΔTm [°C] (Supplementary Table S1): 13.4 °C
BIRC2-BIR3 domain [3]; third column
  ΔTm [°C] (Supplementary Table S1): 13.1 °C
BIRC2-BIR3 domain [4]; ref Lu et al. (2008)
  Ki: 0.3 ± 0.1 nM
BIRC8; [12]
  EC50: 85.7 ± 4.7 nM
BIRC2 BIR2; [13]
  EC50: 6610 ± 5280 nM
BIRC7 BIR; [14]
  EC50: 50.9 ± 44.4 nM

## CN[C@@H](C)C(=O)N[C@H](C(=O)N1CCC[C@H]1C(=O)N[C@H]1c2ccccc2C[C@H]1OCC#CC#CCO[C@@H]1Cc2ccccc2[C@@H]1NC(=O)[C@@H]1CCCN1C(=O)[C@@H](NC(=O)[C@H](C)NC)C1CCCCC1)C1CCCCC1 [AZD5582]
BIRC1 BIR[2]
  EC50: 776 ± 200 nM
BIRC2 BIR3
  EC50: 23 ± 14.4 nM
BIRC3 BIR2
  EC50: 28.5 ± 3.2 nM
BIRC2-BIR3 domain [1]
  Kd: 41.1 ± 2.9 nM
BIRC2-BIR3 domain [2]
  Ki: 2.3 ± 0.3 nM
BIRC7
  EC50: 8 ± 0.3 nM
BIRC2
  EC50: 192 ± 99.3 nM
BIRC8 BIR
  EC50: 85.5 ± 11.1 nM
BIRC2-BIR3 domain [3]; native domain ∼74°C
  melting temperature of BIRC2 BIR3 domain with compound: 92 °C
BIRC2-BIR3 domain [3]; read-out: DSF Assay ΔTm
  ΔTm at 40 µM: 18 °C
BIRC2-BIR3 domain [3]; first column
  ΔTm [°C] (Supplementary Table S1): 18.2 °C
BIRC2-BIR3 domain [3]; third column
  ΔTm [°C] (Supplementary Table S1): 17.9 °C
BIRC3 BIR3
  EC50: 4.1 ± 0.1 nM
BIRC2-BIR3 domain [4]; calculated from IC50, ref Hennessy et al. (2013)
  Ki: 6.4 ± 4.3 nM
BIRC8
  EC50: 76.3 ± 0.1 nM
BIRC2 BIR2
  EC50: 171 ± 151 nM
BIRC7 BIR
  EC50: 16.1 ± 6.3 nM
BIRC3
  EC50: 81.1 ± 14.8 nM
BIRC4
  EC50: 79.6 ± 37.5 nM

## CN[C@@H](C)C(=O)N[C@H](C(=O)N1CCC[C@H]1C(=O)N[C@H](C(=O)NCCCCCCNC(=O)[C@@H](NC(=O)[C@@H]1CCCN1C(=O)[C@@H](NC(=O)[C@H](C)NC)C1CCCCC1)C(c1ccccc1)c1ccccc1)C(c1ccccc1)c1ccccc1)C1CCCCC1 [BV-6] (I: H-[NMeA][Chg]P[Dip] / II: H-[NMeA][Chg]P[Dip]; linker I:C-II:C via Hexamethylenediamine)
BIRC1 BIR[2]; [6]
  EC50: 10900 ± 2100 nM
BIRC2 BIR3; [7]
  EC50: 800 ± 100 nM
BIRC3 BIR2; read-out: EC50 ± SEM NanoBRET BIRC3 BIR2, single domain, HEK293T, n = 4
  EC50: 18000 ± 25200 nM
BIRC2-BIR3 domain [1]
  ITC TΔS: 6.94 ± 0.1 kcal/mol
  Kd: 24.8 ± 8.5 nM
BIRC2-BIR3 domain [2]; [8]
  Ki: 8.4 ± 0.7 nM
BIRC7; [9]
  EC50: 2600 ± 800 nM
BIRC2; [10]
  EC50: 500 ± 100 nM
BIRC8 BIR; [11]
  EC50: 3000 ± 100 nM
BIRC2-BIR3 domain [3]
  Mean, ΔTm [°C] (Supplementary Table S1): 9.1 °C
BIRC2-BIR3 domain [3]; first column
  ΔTm [°C] (Supplementary Table S1): 9.1 °C
BIRC2-BIR3 domain [3]; second column
  ΔTm [°C] (Supplementary Table S1): 9.1 °C
BIRC2-BIR3 domain [3]; third column
  ΔTm [°C] (Supplementary Table S1): 9.1 °C
BIRC3 BIR3; read-out: EC50 ± SEM NanoBRET BIRC3 BIR3, single domain, HEK293T, n = 4
  EC50: 1700 ± 400 nM
BIRC2-BIR3 domain [4]; ref Varfolomeev et al. (2007)
  Ki: 169 nM
BIRC8; [12]
  EC50: 2600 ± 200 nM
BIRC2 BIR2; [13]
  EC50: > 50000 nM
BIRC2 BIR2; single domain, HEK293T, n = 4
  EC50 ± SEM NanoBRET BIRC2 BIR2: did not show any binding
BIRC7 BIR; [14]
  EC50: 2700 ± 800 nM
BIRC3; read-out: EC50 ± SEM NanoBRET BIRC3, full-length, HEK293T, n = 4
  EC50: 800 ± 100 nM
BIRC4; read-out: EC50 ± SEM NanoBRET BIRC4, full-length, HEK293T, n = 4
  EC50: 900 ± 100 nM

B1: fluorescently labeled SMAC probe (AVPIAQKSEK-K(5-FAM)-NH2) (peptide)
peptide: AVPIAQKSEKK
modifications: 5-FAM on the C-terminal lysine (K(5-FAM)); C-terminal amide (NH2)
notes: two lysines that follow the SMAC stretch; the last one carries 5-FAM; Probably a synthetic peptide; also called fluorescent SMAC mimetic; tracer
[5]
  Kd: 14.9 nM
